Results published in publication PMC11707430, “Novel antibiotics against Staphylococcus aureus without detectable resistance by targeting proton motive force and FtsH” (MedComm, 2025).
pIC50: −log10 of the molar value.

Molecular target: T1, hERG (Homo sapiens, UniProt Q12809)
T1 construct: expressed in transfected cells; host or cells: HEK293
Assay: hERG patch clamp
Format: cell-based
Conditions: HEK293 cells expressing hERG channels, pH 7.4, hERG potassium channels
Protocol: hERG. hERG channels expressed HEK293 cell line was cultured in DMEM at 37℃ with 10% FBS to ~70% of log phase. Then, the cells were washed with PBS and digested with trypsin. After incubation at 37 ℃ for 2-3 min, the cells were washed again and adjusted to ~ 2×10^3/mL. The patch clamp detection experiment was performed after the cells attached to the cell wall. The extracellular fluid was prepared as 137 mM NaCl,1 mM MgCl2‧6H2O, 4 mM KCl,1.8 mM CaCl2‧2H2O, 10 mM D-Glucose, 10 mM HEPES, pH=7.4. And the intracellular fluid was prepared as 140 mM KCl,10 mM EGTA, 5 mM MgCl2‧6H2O, 10 mM HEPES, 5 mM Mg-ATP, pH=7.2. The current data was collected by using Pathmaster software. And the peak current inhibition rate was calculated as: (1−Peak tail current compoundPeak tail current veℎicle). The concentration-effects were fitted by the Hill equation: I=Imax∙(1/［1+（C1/2/［C］）^h), where [C], C1/2, and h represented the drug concentration, half inhibitory concentration (IC50), Hill coefficient, respectively^19.

T1 sequence (Q12809 whole entry): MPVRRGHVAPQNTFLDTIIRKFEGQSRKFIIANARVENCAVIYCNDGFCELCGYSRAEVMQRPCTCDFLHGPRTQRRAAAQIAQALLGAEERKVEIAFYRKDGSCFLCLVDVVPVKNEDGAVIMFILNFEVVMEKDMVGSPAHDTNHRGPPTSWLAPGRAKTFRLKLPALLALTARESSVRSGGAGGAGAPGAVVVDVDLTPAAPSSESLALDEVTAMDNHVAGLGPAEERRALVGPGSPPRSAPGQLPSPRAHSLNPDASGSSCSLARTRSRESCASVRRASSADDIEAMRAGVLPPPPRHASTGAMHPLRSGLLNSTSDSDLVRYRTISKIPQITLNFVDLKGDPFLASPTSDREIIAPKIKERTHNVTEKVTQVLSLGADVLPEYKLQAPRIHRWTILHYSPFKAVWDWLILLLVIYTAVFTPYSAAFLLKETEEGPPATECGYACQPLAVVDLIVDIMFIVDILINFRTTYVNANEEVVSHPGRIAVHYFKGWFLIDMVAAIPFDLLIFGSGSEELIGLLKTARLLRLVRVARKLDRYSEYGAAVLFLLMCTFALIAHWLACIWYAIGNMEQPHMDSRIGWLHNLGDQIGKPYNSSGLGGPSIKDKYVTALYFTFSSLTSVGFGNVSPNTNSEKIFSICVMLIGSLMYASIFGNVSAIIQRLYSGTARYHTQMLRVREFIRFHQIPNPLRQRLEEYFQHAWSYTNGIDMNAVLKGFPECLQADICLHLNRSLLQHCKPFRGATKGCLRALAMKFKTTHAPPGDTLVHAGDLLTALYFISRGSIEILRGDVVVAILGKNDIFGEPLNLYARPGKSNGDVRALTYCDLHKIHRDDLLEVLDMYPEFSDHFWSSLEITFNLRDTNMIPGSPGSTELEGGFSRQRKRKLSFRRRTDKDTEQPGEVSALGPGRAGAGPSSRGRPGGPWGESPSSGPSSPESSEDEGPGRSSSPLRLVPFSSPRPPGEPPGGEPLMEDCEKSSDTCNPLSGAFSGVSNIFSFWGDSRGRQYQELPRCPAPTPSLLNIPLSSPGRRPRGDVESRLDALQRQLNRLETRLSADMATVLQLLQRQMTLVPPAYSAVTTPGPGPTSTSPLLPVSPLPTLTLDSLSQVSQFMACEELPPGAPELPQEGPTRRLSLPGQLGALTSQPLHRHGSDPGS

Cc1nc2c(-c3ccc(Cl)cc3)cnn2c(O)c1Cc1ccccc1 [STK848198]
pIC50: < 4.52
